#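 How tested: cells in 96-well plates exposed to compound for 48 hours at five concentrations. At the GI50, growth is halved. TGI denotes the concentration required for complete inhibition of growth.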
# What was measured:
# Assay in all cases: DTP human tumour cell line panel, 48 h
# A498 renal = tested on: A498 renal
# A549 NSCLC = tested on: A549 NSCLC
# TK-10 renal = tested on: TK-10 renal
# K-562 leukemia = tested on: K-562 leukemia
# SF-539 CNS = tested on: SF-539 CNS
# SK-MEL-5 melanoma = tested on: SK-MEL-5 melanoma
# MDA-MB-231 breast = tested on: MDA-MB-231 breast
# PC-3 prostate = tested on: PC-3 prostate
# 786-0 renal = tested on: 786-0 renal
# SR leukemia = tested on: SR leukemia
# HT29 colon = tested on: HT29 colon
# UO-31 renal = tested on: UO-31 renal
# HOP-62 NSCLC = tested on: HOP-62 NSCLC
# EKVX NSCLC = tested on: EKVX NSCLC
# KM12 colon = tested on: KM12 colon
# MOLT-4 leukemia = tested on: MOLT-4 leukemia
# SW-620 colon = tested on: SW-620 colon
# OVCAR-4 ovarian = tested on: OVCAR-4 ovarian
# SNB-19 CNS = tested on: SNB-19 CNS
# LOX IMVI melanoma = tested on: LOX IMVI melanoma
# HL-60(TB) leukemia = tested on: HL-60(TB) leukemia
# HOP-92 NSCLC = tested on: HOP-92 NSCLC
# COLO 205 colon = tested on: COLO 205 colon
# MALME-3M melanoma = tested on: MALME-3M melanoma
# BT-549 breast = tested on: BT-549 breast
# UACC-257 melanoma = tested on: UACC-257 melanoma
# MDA-MB-435 = tested on: MDA-MB-435
# UACC-62 melanoma = tested on: UACC-62 melanoma
# DU-145 prostate = tested on: DU-145 prostate
# HCT-116 colon = tested on: HCT-116 colon
# OVCAR-3 ovarian = tested on: OVCAR-3 ovarian
# HCT-15 colon = tested on: HCT-15 colon
# SF-295 CNS = tested on: SF-295 CNS
# RXF 393 renal = tested on: RXF 393 renal
# RPMI-8226 leukemia = tested on: RPMI-8226 leukemia
# OVCAR-8 ovarian = tested on: OVCAR-8 ovarian
# SK-MEL-2 melanoma = tested on: SK-MEL-2 melanoma
# SNB-75 CNS = tested on: SNB-75 CNS
# SN12C renal = tested on: SN12C renal
# NCI-H460 lung = tested on: NCI-H460 lung
# SF-268 CNS = tested on: SF-268 CNS
# NCI-H23 lung = tested on: NCI-H23 lung
# HS 578T breast = tested on: HS 578T breast
# T-47D breast = tested on: T-47D breast
# NCI-H226 lung = tested on: NCI-H226 lung
# SK-MEL-28 melanoma = tested on: SK-MEL-28 melanoma
# OVCAR-5 ovarian = tested on: OVCAR-5 ovarian
# M14 melanoma = tested on: M14 melanoma
# ACHN renal = tested on: ACHN renal
# CAKI-1 renal = tested on: CAKI-1 renal
# SK-OV-3 ovarian = tested on: SK-OV-3 ovarian
# NCI-H522 lung = tested on: NCI-H522 lung
# IGROV1 ovarian = tested on: IGROV1 ovarian
# MCF7 breast = tested on: MCF7 breast
# NCI/ADR-RES ovarian = tested on: NCI/ADR-RES ovarian
# U251 CNS = tested on: U251 CNS
# HCC-2998 colon = tested on: HCC-2998 colon
structure (smiles),measurement,setting,value
CCCCCCCCCCCCOC1C(C(CC(=O)N2CCN(Cc3ccc4c(c3)OCO4)CC2)NS(=O)(=O)c2cc(Cl)cc(Cl)c2)OC2OC(C)(C)OC21 (centres undefined),GI50,A498 renal,43.4 µM
same,TGI,A498 renal,> 100 µM
same,GI50,A549 NSCLC,8.48 µM
same,TGI,A549 NSCLC,> 100 µM
same,GI50,TK-10 renal,58 µM
same,TGI,TK-10 renal,> 100 µM
same,GI50,K-562 leukemia,14.8 µM
same,TGI,K-562 leukemia,> 100 µM
same,GI50,SF-539 CNS,43 µM
same,TGI,SF-539 CNS,> 100 µM
same,GI50,SK-MEL-5 melanoma,39.3 µM
same,TGI,SK-MEL-5 melanoma,> 100 µM
same,GI50,MDA-MB-231 breast,18.1 µM
same,TGI,MDA-MB-231 breast,> 89.8 µM
same,GI50,PC-3 prostate,4.04 µM
same,TGI,PC-3 prostate,> 100 µM
same,GI50,786-0 renal,20.4 µM
same,TGI,786-0 renal,> 86.5 µM
same,GI50,SR leukemia,3.85 µM
same,TGI,SR leukemia,47.4 µM
same,GI50,HT29 colon,4.82 µM
same,TGI,HT29 colon,31.1 µM
same,GI50,UO-31 renal,32.9 µM
same,TGI,UO-31 renal,> 100 µM
same,GI50,HOP-62 NSCLC,86.5 µM
same,TGI,HOP-62 NSCLC,> 100 µM
same,GI50,EKVX NSCLC,19.1 µM
same,TGI,EKVX NSCLC,> 100 µM
same,GI50,KM12 colon,18.1 µM
same,TGI,KM12 colon,> 100 µM
same,GI50,MOLT-4 leukemia,5.03 µM
same,TGI,MOLT-4 leukemia,> 100 µM
same,GI50,SW-620 colon,16.4 µM
same,TGI,SW-620 colon,> 100 µM
same,GI50,OVCAR-4 ovarian,18.1 µM
same,TGI,OVCAR-4 ovarian,> 100 µM
same,GI50,SNB-19 CNS,44.7 µM
same,TGI,SNB-19 CNS,> 100 µM
same,GI50,LOX IMVI melanoma,16 µM
same,TGI,LOX IMVI melanoma,> 65.9 µM
same,GI50,HL-60(TB) leukemia,10.8 µM
same,TGI,HL-60(TB) leukemia,78.3 µM
same,GI50,HOP-92 NSCLC,15.1 µM
same,TGI,HOP-92 NSCLC,> 62.8 µM
same,GI50,COLO 205 colon,11.7 µM
same,TGI,COLO 205 colon,> 78.3 µM
same,GI50,MALME-3M melanoma,> 93.1 µM
same,TGI,MALME-3M melanoma,> 100 µM
same,GI50,BT-549 breast,27.9 µM
same,TGI,BT-549 breast,> 100 µM
same,GI50,UACC-257 melanoma,59.1 µM
same,TGI,UACC-257 melanoma,> 100 µM
same,GI50,MDA-MB-435,48 µM
same,TGI,MDA-MB-435,> 100 µM
same,GI50,UACC-62 melanoma,> 63.3 µM
same,TGI,UACC-62 melanoma,> 100 µM
same,GI50,DU-145 prostate,25.5 µM
same,TGI,DU-145 prostate,> 100 µM
same,GI50,HCT-116 colon,6.69 µM
same,TGI,HCT-116 colon,36.7 µM
same,GI50,OVCAR-3 ovarian,20.3 µM
same,TGI,OVCAR-3 ovarian,> 100 µM
same,GI50,HCT-15 colon,> 100 µM
same,TGI,HCT-15 colon,> 100 µM
same,GI50,SF-295 CNS,26.3 µM
same,TGI,SF-295 CNS,> 100 µM
same,GI50,RXF 393 renal,6.43 µM
same,TGI,RXF 393 renal,28.1 µM
same,GI50,RPMI-8226 leukemia,3.79 µM
same,TGI,RPMI-8226 leukemia,> 47.5 µM
same,GI50,OVCAR-8 ovarian,20.6 µM
same,TGI,OVCAR-8 ovarian,> 100 µM
same,GI50,SK-MEL-2 melanoma,47.9 µM
same,TGI,SK-MEL-2 melanoma,> 100 µM
same,GI50,SNB-75 CNS,> 45 µM
same,TGI,SNB-75 CNS,> 100 µM
same,GI50,SN12C renal,15.6 µM
same,TGI,SN12C renal,43.2 µM
same,GI50,NCI-H460 lung,5.44 µM
same,TGI,NCI-H460 lung,35 µM
same,GI50,SF-268 CNS,12.3 µM
same,TGI,SF-268 CNS,> 91.5 µM
same,GI50,NCI-H23 lung,17.4 µM
same,TGI,NCI-H23 lung,> 100 µM
same,GI50,HS 578T breast,9.17 µM
same,TGI,HS 578T breast,> 68.9 µM
same,GI50,T-47D breast,28.9 µM
same,TGI,T-47D breast,> 100 µM
same,GI50,NCI-H226 lung,43.5 µM
same,TGI,NCI-H226 lung,> 100 µM
same,GI50,SK-MEL-28 melanoma,> 100 µM
same,TGI,SK-MEL-28 melanoma,> 100 µM
same,GI50,OVCAR-5 ovarian,6.49 µM
same,TGI,OVCAR-5 ovarian,> 100 µM
same,GI50,M14 melanoma,61.1 µM
same,TGI,M14 melanoma,> 100 µM
same,GI50,ACHN renal,33.8 µM
same,TGI,ACHN renal,> 100 µM
same,GI50,CAKI-1 renal,> 100 µM
same,TGI,CAKI-1 renal,> 100 µM
same,GI50,SK-OV-3 ovarian,> 100 µM
same,TGI,SK-OV-3 ovarian,> 100 µM
same,GI50,NCI-H522 lung,26.9 µM
same,TGI,NCI-H522 lung,> 100 µM
same,GI50,IGROV1 ovarian,14 µM
same,TGI,IGROV1 ovarian,> 100 µM
same,GI50,MCF7 breast,4.45 µM
same,TGI,MCF7 breast,36.6 µM
same,GI50,NCI/ADR-RES ovarian,> 100 µM
same,TGI,NCI/ADR-RES ovarian,> 100 µM
same,GI50,U251 CNS,12.5 µM
same,TGI,U251 CNS,> 100 µM
same,GI50,HCC-2998 colon,5.54 µM
same,TGI,HCC-2998 colon,> 51.4 µM

# Source: PubChem BioAssay (NCI)
